Molecules are shown by their SMILES.

Series [1] can be described thus: CZE stability study in H2O and 20 mM phosphate buffer (pH 7.4). Type of series: physicochemical. The conditions noted are these: 200 μM; for Stability in water (peak areas of cationic species constant): complex cations of 2 and 3, or initial aquation products of 1 and 3, CZE over 24 h. The procedure: Stability studies of complexes 1–3 were carried out in both H2O and 20 mM phosphate buffer (pH 7.4). Stock solutions for the complexes were prepared in methanol (2 mM). The samples were diluted just before the first measurement to a final complex concentration of 200 μM. Tris(acetylacetonato)cobalt(III) [Co(acac)3] was added as an internal standard to all samples at a final concentration of 100 μM. The stability was studied for 24 h by monitoring changes in the peak areas over time.
(§1) All measurements were performed in at least triplicate on a CE system G7100 (Agilent, Waldbronn, Germany) equipped with a long-life deuterium lamp (8 pin) with an radio-frequency identification (RFID) tag. A capillary (fused silica, 50 μm ID, Polymicro Technologies) with a total length of 50 cm and an effective length of 40 cm was installed for the separation with ultraviolet (UV) detection. The capillary zone electrophoresis (CZE)–UV data and peak areas presented were recorded at 200 nm, while the internal standard signal was recorded at 254 nm in the samples containing αMEM and human serum, as other neutral species were overlapping the signal at 200 nm. For HSA binding site studies, 210 nm was selected as the evaluation wavelength.
(§2) New capillaries were conditioned with HCl (0.1 M) and H2O followed by NaOH (1.0 M) and H2O for 10 min each followed by flushing with BGE [phosphate buffer (20 mM, pH 7.4)] for 20 min. The same procedure was carried out as daily conditioning. The capillary was flushed with BGE (3 min) before each run and was rinsed with HCl (0.1 M; 30 s), H2O (30 s), NaOH (1.0 M, 2 min), and H2O (2 min) after each separation. The sample tray and the capillary were kept at 25°C. Samples were injected hydrodynamically (50 mbar for 5 s) and the voltage applied was +20 kV for 5 min. The current reading was 23–24 μA.

The target in series [2] is T1, HSA (Homo sapiens, UniProt P02768).
T1 construct: purchased Sigma-Aldrich A3782
T1 sequence (P02768 25-609): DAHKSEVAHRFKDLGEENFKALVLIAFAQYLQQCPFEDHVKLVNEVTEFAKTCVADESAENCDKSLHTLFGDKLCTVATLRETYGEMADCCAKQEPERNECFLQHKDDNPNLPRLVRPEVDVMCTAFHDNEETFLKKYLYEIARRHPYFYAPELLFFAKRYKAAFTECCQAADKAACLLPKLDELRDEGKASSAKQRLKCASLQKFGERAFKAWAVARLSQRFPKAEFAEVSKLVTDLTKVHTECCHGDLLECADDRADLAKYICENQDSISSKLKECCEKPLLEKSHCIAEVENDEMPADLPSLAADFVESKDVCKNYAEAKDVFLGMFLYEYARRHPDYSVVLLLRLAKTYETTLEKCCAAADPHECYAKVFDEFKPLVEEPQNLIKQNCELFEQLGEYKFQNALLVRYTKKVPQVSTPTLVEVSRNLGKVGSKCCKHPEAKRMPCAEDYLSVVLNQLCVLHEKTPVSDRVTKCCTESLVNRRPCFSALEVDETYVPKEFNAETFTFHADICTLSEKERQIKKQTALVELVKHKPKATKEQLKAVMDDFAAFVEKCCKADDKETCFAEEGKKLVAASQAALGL
Kind of series: CZE interaction study with HSA. Type of series: binding. As for the experimental part: (§3) Stock solutions of HSA and Tf in BGE were prepared (400 μM). Studies were performed for 1 and 2 at complex (200 μM):protein ratios of 1:1, 10:1, and 20:1. The PCA complex 3 was investigated at complex (200 μM):protein ratios of 20:1 and 50:1 for HSA and at 10:1 and 20:1 for Tf. Samples were prepared just before the first measurement. BGE was used for dilution and [Co(acac)3] was added as the internal standard to all samples at a final concentration of 100 μM.
as §1, §2

The target of series [3] is T2, Tf (Homo sapiens, UniProt P02787).
T2 construct: purchased Sigma-Aldrich
T2 sequence (P02787 20-698): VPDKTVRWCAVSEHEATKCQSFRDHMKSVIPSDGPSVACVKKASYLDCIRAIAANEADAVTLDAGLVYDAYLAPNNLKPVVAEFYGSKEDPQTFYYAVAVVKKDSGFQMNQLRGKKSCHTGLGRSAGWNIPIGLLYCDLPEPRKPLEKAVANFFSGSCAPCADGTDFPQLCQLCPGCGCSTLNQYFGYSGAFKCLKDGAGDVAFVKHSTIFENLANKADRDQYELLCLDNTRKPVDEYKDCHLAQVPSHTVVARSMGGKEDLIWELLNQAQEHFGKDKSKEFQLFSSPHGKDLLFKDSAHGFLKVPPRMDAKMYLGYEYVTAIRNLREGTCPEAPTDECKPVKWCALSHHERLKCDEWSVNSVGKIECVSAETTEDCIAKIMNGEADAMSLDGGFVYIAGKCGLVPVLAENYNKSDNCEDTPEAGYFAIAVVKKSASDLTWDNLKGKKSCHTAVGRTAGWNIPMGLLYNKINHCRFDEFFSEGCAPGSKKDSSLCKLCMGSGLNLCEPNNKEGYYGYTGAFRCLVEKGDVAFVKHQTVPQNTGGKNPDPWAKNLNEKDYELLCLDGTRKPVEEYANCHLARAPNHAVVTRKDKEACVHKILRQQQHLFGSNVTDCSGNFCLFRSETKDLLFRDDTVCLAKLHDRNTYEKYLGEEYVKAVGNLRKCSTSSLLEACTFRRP
Kind of series: CZE interaction study with Tf. Type of series: binding. As for the experimental part: as §3, §1, §2

Series [4] concerns the target T3, HSA binding site II (Homo sapiens, UniProt P02768).
T3 construct: purchased Sigma-Aldrich A1653
The series can be described thus: Competitive displacement study, HSA binding site II (Ds marker), CZE. As to conditions: for % Ds bound: Ds:HSA (100 μM) 2:1, n = 3. The procedure: The affinity of complex 1 for binding sites I and II on HSA was investigated with Wf as the site marker for binding site I and Ds for site II by tracking the peak area for unbound Wf and Ds, respectively. Stock solutions of Wf, Ds, and HSA were prepared in H2O at concentrations of 800, 800, and 200 μM, respectively. Wf or Ds were incubated with HSA (100 μM) at a ratio of 2:1 for at least 1 h at room temperature before complex 1 was added at final concentrations of 200, 400, or 800 μM. The final concentration of methanol was 10% in all samples. Calibration curves for Wf or Ds in the range of 50–300 μM were determined before the start of each displacement study, to allow for accurate quantification of the amounts of Ds or Wf displaced by complex 1.
as §1
(§4) For the binding site studies with HSA, a modified version of a CE method was applied.[21] Before each run, the capillary was flushed with BGE (2 min), then +28 kV voltage was applied for 30 s followed by 1 min of flushing with BGE and the capillary was rinsed with HCl (0.1 M; 2 min), H2O (2 min), NaOH (1.0 M, 2 min), and H2O (2 min) after each separation. The sample tray and the capillary were kept at 25°C. Samples were injected hydrodynamically (30 mbar for 5 s) and the voltage applied was +28 kV for 5 min. The current reading was 34 μA.

Series [5] deals with T4, HSA binding site I (Homo sapiens, UniProt P02768).
T4 construct: purchased Sigma-Aldrich A1653
T4 sequence (P02768 25-609): as the sequence (P02768 25-609) above
The series can be described thus: Competitive displacement study, HSA binding site I (Wf marker), CZE. The conditions noted are these: for % Wf bound: Wf:HSA (100 μM) 2:1, n = 3. As for the experimental part: The final concentration of methanol was 10% in all samples.
as §1, §4

Series [6] addresses T2, Tf. The series can be described thus: FT-ICR-MS adduct formation with Tf. Type of series: binding. The conditions noted are these: complex:Tf 5:1 in water. The procedure:
The adduct formation between complex 1 and Tf was further studied using a Bruker Solarix XR 7 T FT–ICR–MS. A mixture of 1 and Tf in ratio 5:1 in H2O (18 MΩ, Millipore) was incubated for 24 h. A sample was collected after 0 and 24 h, and the samples were frozen until analysis. The samples were diluted 1:100 with 0.1% formic acid in H2O (18 MΩ, Millipore) prior to analysis, producing a final concentration of 2 μM for complex 1 and 0.4 μM for Tf. A separate standard of Tf at 0.4 μM was also prepared and analyzed.

Series [7] can be described thus: Aqueous solubility. Type of series: physicochemical.
Series [8] has as its system human cancer cells. The conditions noted are these: cited from earlier work.
On the set-up of series [9]: method as in PMID 31357065. As to conditions: cited from earlier work.
Series [10] in a line: CZE interaction study with cell culture medium. Type of series: in vitro ADME. The conditions noted are these: complex 200 μM, medium diluted 1:10, complex:albumin 133:1. As for the experimental part: The interactions of complexes 1–3 with cell culture medium (αMEM with 5% FBS) were investigated. The αMEM was diluted 1:10 with BGE and the complex concentrations were kept at 200 μM and [Co(acac)3] at 100 μM. The dilution corresponded to a complex:albumin ratio of 133:1.
as §1
(§5) New capillaries were conditioned with HCl (0.1 M) and H2O followed by NaOH (1.0 M) and H2O for 10 min each followed by flushing with BGE [phosphate buffer (20 mM, pH 7.4)] for 20 min. The same procedure was carried out as daily conditioning. […] The current reading was 23–24 μA.

Series [11] in a line: CZE interaction study with human serum. Type of series: in vitro ADME. The conditions noted are these: complex 200 μM, serum diluted 1:100, complex:albumin about 50:1. As for the experimental part:
The interactions of complexes 1–3 with human serum were investigated after diluting the serum 1:100 with BGE and the complex concentrations were kept at 200 μM and for [Co(acac)3] at 100 μM. The dilution corresponded to a complex:protein ratio of about 50:1 with regard to albumin content.
as §1, §5

The test system of series [12] is plectin. Details: method as in earlier work. The conditions noted are these: cited from earlier work.
The test system of series [13] is HSA and Tf. The arrangement: method as in PMID 15907879. As to conditions: cited from earlier work.

T3 sequence (P02768 25-609): as above

`Cc1ccc(C(C)C)cc1.[Cl-].[O-]c1cccc2cccnc12.[Ru+2]` [Complex 1, [Ru^II(cym)(8-HQ)Cl]]: the “Speciation on dilution with water or BGE” value in [1] (migration relative to EOF marker [Co(acac)3]) is given as “underwent ligand exchange to form a cationic species”. Moreover, the “Stability in water (peak areas of cationic species constant)” value (“Stability in water” for short) in series [1] is “at least 24 h”. Besides, in [2] (complex (200 μM):HSA 1:1), the “Binding to HSA, complex peak” value was “complex peak was not detectable in the first run”. Further, the “Binding to HSA” value in [2] (complex (200 μM):HSA 10:1, over 2 h) is “majority of complex 1 was found attached to either protein”. Besides, the “Fraction of complex remaining unbound” value is listed as “about a quarter to a third” in series [2] (complex (200 μM):HSA 20:1, after 2 h) and “about a quarter to a third” in [3] (complex (200 μM):Tf 20:1, after 2 h). Moreover, the “Binding to Tf, complex peak” value in series [3] (complex (200 μM):Tf 1:1) was “complex peak was not detectable in the first run”. Also, the “Binding to Tf” value in series [3] (complex (200 μM):Tf 10:1, over 2 h) is on record as “majority of complex 1 was found attached to either protein”. For the same compound, the “% Ds bound” value in series [4] (200 μM complex 1, 0 h) is 44 ± 6%; in series [4] (200 μM complex 1, 24 h), 50 ± 7%; in series [4] (200 μM complex 1, 48 h), 45 ± 7%; in series [4] (400 μM complex 1, 0 h), 35 ± 7%; in series [4] (400 μM complex 1, 24 h) it was 19 ± 11%; in [4] (400 μM complex 1, 48 h), 33 ± 7%. In addition, the “% Ds bound” value is “Fully displaced” in series [4] (800 μM complex 1, 0 h); “Fully displaced” in series [4] (800 μM complex 1, 24 h); “Fully displaced” in series [4] (800 μM complex 1, 48 h). Besides, the “Binding to site II on HSA (displacement of Ds)” value in series [4] (at higher molar ratios) was “binds to both sites I and II on HSA”. In addition, the “% Wf bound” value in [5] (200 μM complex 1, 0 h) is 58 ± 4%; in series [5] (200 μM complex 1, 24 h), 59 ± 4%; in series [5] (200 μM complex 1, 48 h), 51 ± 4%; in series [5] (400 μM complex 1, 0 h), 26 ± 9%; in series [5] (400 μM complex 1, 24 h), 23 ± 5%; in series [5] (400 μM complex 1, 48 h) it was 33 ± 8%. Moreover, the “% Wf bound” value is listed as “Fully displaced” in [5] (800 μM complex 1, 0 h); “Fully displaced” in [5] (800 μM complex 1, 24 h); “Fully displaced” in series [5] (800 μM complex 1, 48 h). For the same compound, the “Binding to site I on HSA (displacement of Wf)” value in series [5] (at higher molar ratios) was “binds to both sites I and II on HSA”. Moreover, the “Adducts formed with Tf” value in series [6] (after 24 h) was “[Tf + 3 Ru(cym)(8-HQ)] was dominant”; in series [6] (immediately after mixing (0 h)) it was “adducts with one, two, and three Ru(cym)(8-HQ) moieties attached to the protein”. Besides, the Aqueous solubility result in series [7] is given as “limited aqueous solubility”. Moreover, the “IC50 values (antiproliferative properties)” value in series [8] is reported as “low micromolar range”. Further, in [9], the “Halido/aqua ligand exchange in aqueous environment (1H NMR)” value is “undergo halido/aqua ligand exchange quickly”.
On to `C1N2CN3CN1CP(C2)C3.Cc1ccc(C(C)C)cc1.O=S(=O)([O-])C(F)(F)F.[O-]c1cccc2cccnc12.[Ru+2]` [Complex 2, [Ru^II(cym)(8-HQ)(PTA)](SO3CF3)], for which, in series [1], the “Stability in water” value is listed as “at least 24 h”. The “Interaction with HSA” value in [2] (complex (200 μM):HSA 1:1, 10:1, 20:1, over 1 d) is “does not interact with either protein”. Further, the “Interaction with Tf” value in [3] (complex (200 μM):Tf 1:1, 10:1, 20:1, over 1 d) was “does not interact with either protein”. Besides, the “Interaction with αMEM spiked with 5% FBS” value in series [10] is on record as “no interactions were observed”. Also, the “Interaction with human serum” value in [11] was “no interactions were observed”. Also, the “Halido/aqua ligand exchange in aqueous environment (1H NMR)” value in series [9] is given as “inert”.
As to `Cc1ccc(C(C)C)cc1.Fc1ccc(NC(=S)c2ccccn2)cc1.[Cl-].[Cl-].[Ru+2]` [Complex 3, [Ru^II(cym)(PCA)Cl]Cl], in series [1], the “Stability in water” value is reported as “at least 24 h”. The “Observation on incubation with HSA” value in series [2] (complex (200 μM):HSA 20:1 and 50:1, data not analysable) is recorded as “precipitation”. The “Decrease in Tf peak area” value came to 62% in series [3] (complex:Tf 10:1) and 82% in [3] (complex:Tf 20:1). For the same compound, the “Decrease in peak area of complex 3” value in series [3] (complex:Tf 20:1) was 37%. The “Interaction with αMEM spiked with 5% FBS” value in series [10] was “precipitation was observed”. The “Interaction with human serum” value in series [11] was “precipitation was observed”. In [8], the “IC50 values (antiproliferative properties)” value is “low micromolar range”. For the same compound, in series [12], the Protein target result was “specifically target the scaffold protein and cytolinker plectin”.
Consider `[Cl-].[Cl-].[Cl-].[Cl-].[Ru+3].c1ccc2[nH][nH+]cc2c1.c1ccc2[nH]ncc2c1.c1ccc2[nH]ncc2c1` [KP1019, Indazolium Trans-[Tetrachlorobis(1H-Indazole)Ruthenate(III)]], for which, in series [13], the “Relative rate of binding to serum proteins” value is on record as “bind quicker to Tf than HSA”.

Values taken from PMC9314723, “The aqueous stability and interactions of organoruthenium compounds with serum proteins, cell culture medium, and human serum” (Metallomics: Integrated Biometal Science, 2022).
